Measurements published in patent US6444648B1, “Leishmaniasis remedy containing glucopyranose derivative as the active ingredient” (University of the Ryukyu, priority 1997, dated 2002).

Test system: L. amazonesis
Experiment: Effects upon leishmaniasis-infected mice (shrinkage of skin foci)
Type: in vivo, BALB/c mice
Details: 30 mg/kg twice a week for 8 weeks; for Average focus shrinkage degree: before administration = 100
Text: L. amazonesis was inoculated to tail root portions of BALB/c mice to prepare L. amazonesis-infected mice, and the mice were used 6 week after the infection. These mice were divided into four groups as mentioned below, infected foci (tail root portions) were photographed with lapse of time, and the effects upon them were examined in terms of [by means of] shrinkage degrees of the skin foci. The shrinkage degree of the skin focus was found by measuring a major axis of ulcer or node. The magnitude before administration was taken as 100 and the magnitude 8 weeks after administration was calculated according to the following calculation formula. Group A (Control group) Only a solvent (55% ethanol-4.5% glucose liquid) was injected topically into a focus twice a week for 8 weeks. Group B (Control group) Only a solvent (55% ethanol-4.5% glucose liquid) was injected intraperitoneally twice a week for 8 weeks. Group C (Topically injected group) A solution in which the sodium salt of the compound in the present invention represented by the formula (1) was dissolved in the solvent was injected topically into a focus twice a week for 8weeks at a rate of 30 mg/kg. Group D (intraperitoneally injected group) A solution in which the sodium salt of the compound in the present invention represented by the formula (1) was dissolved in the solvent was injected intraperitoneally twice a week for 8 weeks at a rate of 30 mg/kg. [formula]

## 2-deoxy-2-[(3S)-(9-phenylnonanoyloxy)tetradecanoyl]amino-3-O-(9-phenylnonanoyl)-4-O-sulfo-α-D-glucopyranose
Group C: injected topically into focus, magnitude (major axis of ulcer or node) 8 weeks after administration, n = 7, solvent control Group A 220.5
  Average focus shrinkage degree: 138.9 (n = 7)
Group C: topical injection, n = 7
  Skin focus completely cured (number of mice): completely cured with respect to three mice
Group D: injected intraperitoneally, magnitude 8 weeks after administration, n = 6, solvent control Group B 289.3
  Average focus shrinkage degree: 178.5 (n = 6)

## CCCCCCCCCCC[C@@H](CC(=O)N[C@@H]1[C@@H](OC(=O)CCCCCCCCc2ccccc2)[C@H](OS(=O)(=O)[O-])[C@@H](CO)O[C@@H]1O)OC(=O)CCCCCCCCc1ccccc1.[Na+] [the compound in the present invention, 2-deoxy-2-[(3S)-(9-phenylnonanoyloxy)tetradecanoyl]-amino-3-O-(9-phenylnonanoyl)-4-O-sulfo-α-D-glucopyranose]
Conclusion from Table 1, topical or intraperitoneal
  Effect on focal infection of leishmaniasis-infected mice (in words): effectively shrunk the focal infection
